# According to US20110033461A1, “Combination Therapy for the Treatment of Cancer” (priority 2008, published 2011):
# Read-outs that look alike come from different tables or passages of the source.
# How the values were obtained:
# [1] = tested on: HCT116 cells; experiment: viability-based synergy experiment, C1368 and erlotinib, HCT116 cells; type: cell-based, human; settings: for fold decrease of IC50 value, combination vs drug alone: C1368:erlotinib 1:25 ratio
# Description: (§1) ED refers to the percentage of cell killed at different drug doses.
# [2] = tested on: DLD1 cells; experiment: viability-based synergy experiment, C1368 and erlotinib, DLD1 cells; type: cell-based
# Description: as §1
# [3] = tested on: HCT116 cells; experiment: viability-based synergy experiment, C1368 and cetuximab, HCT116 cells; type: cell-based, human
# [4] = tested on: HCT116 cells; experiment: cell cycle analysis of erlotinib-treated HCT116 cells; type: cell-based, human
# Description: Inhibition of Aurora kinase activity is associated with cell cycle arrest.
SMILES,"fold decrease of IC50 value, combination vs drug alone ([1]; HCT116 cells) [fold]","IC50 ([1]; HCT116 cells, combination of C1368 and erlotinib, 1:25 ratio, read-out: IC50 value in combination) [µM]","IC50 ([1]; HCT116 cells, treatment with either drug alone, read-out: IC50 value, drug alone) [µM]","IC50 ([2]; DLD1 cells, combination treatment with C1368 and erlotinib, read-out: IC50 in combination) [µM]","IC50 ([2]; DLD1 cells, single agent, read-out: IC50, single agent) [µM]","IC50 ([3]; cetuximab with C1368, 1:109 ratio, read-out: IC50 value in combination) [µM]","IC50 ([3]; read-out: IC50 value, drug alone (cetuximab experiment), drug alone) [µM]","IC50 ([1]; Homo sapiens, HCT-116, read-out: IC50 value in combination) [µM]","IC50 ([1]; Homo sapiens, HCT-116, HCT116 cells, treatment with either drug alone, read-out: IC50 value, drug alone) [µM]",concentration at which there was a reduction in cell number suggesting cell death [4] [µM],induction of cell cycle arrest [4],"IC50 ([2]; Homo sapiens, DLD-1, read-out: IC50 in combination) [µM]","IC50 ([2]; Homo sapiens, DLD-1, DLD1 cells, single agent, read-out: IC50, single agent) [µM]"
O=C(Nc1cccc(Nc2nccc(Nc3cccc(C(F)(F)F)c3)n2)c1)C1CC1 [C1368],> 4,0.5,2.3,0.5,2.7,1,2.1,–,–,–,–,–,–
C#Cc1cccc(Nc2ncnc3cc(OCCOC)c(OCCOC)cc23)c1 [erlotinib],> 3,–,–,–,–,–,–,12.3,37.3,> 50,did not noticeably induce cell cycle arrest,13.8,71.7
